# According to US8404618B2, “Herbicidal composition” (priority 2004, dated 2013):
# Assays:
# Format in all cases: in vivo
# maize = assay: Pre-emergent test on maize (safener action); details: evaluated after 14 days
# Protocol: The test plants are sown in seed troughs under greenhouse conditions. A standard earth is used as the culture substrate. In a pre-emergent stage, the herbicides are applied both by themselves and in a mixture with safeners to the soil surface. […] The tests are evaluated after 14 days (100%=plants completely dead; 0%=no phytotoxic action on the plants).
# wheat = assay: Pre-emergent test on wheat (safener action); details: after 14 days, average value of two repetitions
# Protocol: The test plants are sown in 48 well plates in a growth chamber. A sterilized standard earth is used as the culture substrate. In a pre-emergent stage, the herbicides are applied both by themselves and in a mixture with safeners to the soil surface. The application is carried out with an aqueous suspension of the test substances, prepared from a 25% wettable powder (Example F3,b), to achieve a field equivalent of 375 l/ha. The tests are evaluated after 14 days (100%=plants completely dead; 0%=no phytotoxic action on the plants).
# maize (Marista 11f) = assay: Post-emergent test on maize (safener action); details: post-emergent (GS 11), evaluated after 28 days
# Protocol: The test plants are sown in containers under glasshouse conditions. A standard earth is used as the culture substrate. In a maize growth stage of one leaf (GS 11), the herbicides are applied both by themselves and in a mixture with safeners to the soil and leaf surface. The application is carried out with an aqueous suspension of the test substances, prepared from a 25% wettable powder (Example F3,b) or a suspension concentrate (Example F8), to achieve a field equivalent of 200 l/ha. The tests are evaluated after 28 days (100%=plants completely dead; 0%=no phytotoxic action on the plants).
SMILES,phytotoxic action on the plants (100%=plants completely dead; 0%=no phytotoxic action) (maize; herbicide alone 250 g/ha),phytotoxic action on the plants (100%=plants completely dead; 0%=no phytotoxic action) (maize; herbicide alone 500 g/ha),phytotoxic action on the plants (100%=plants completely dead; 0%=no phytotoxic action) (maize; herbicide alone 1000 g/ha),phytotoxic action on the plants (100%=plants completely dead; 0%=no phytotoxic action) (wheat; herbicide alone 100 g/ha),phytotoxic action on the plants (100%=plants completely dead; 0%=no phytotoxic action) (maize (Marista 11f); herbicide alone 37.5 g/ha),phytotoxic action on the plants (100%=plants completely dead; 0%=no phytotoxic action) (maize (Marista 11f); herbicide alone 75 g/ha),phytotoxic action on the plants (100%=plants completely dead; 0%=no phytotoxic action) (maize (Marista 11f); herbicide alone 150 g/ha),phytotoxic action on the plants (100%=plants completely dead; 0%=no phytotoxic action) (wheat; herbicide alone 200 g/ha)
CC1(C)CC(S(=O)(=O)Cc2c(F)cccc2F)=NO1 [Comp. 1.41],30%,70%,80%,,,,,
Cn1nc(C(F)(F)F)c(C[S+]([O-])C2=NOC(C)(C)C2)c1OC(F)F (stereo not drawn) [Comp. 1.57],,,,90%,,,,
"Cn1nc(C(F)(F)F)c(CS(=O)(=O)C2=NOC(C)(C)C2)c1OC(F)F [Comp. 1.27, 3-(5-difluoromethoxy-1-methyl-3-trifluoromethyl-1H-pyrazol-4-ylmethylsulfonyl)-5,5-dimethyl-4,5-dihydroisoxazole]",,,,25%,0%,10%,40%,50%
